Melting point and IC50 data for 20 compounds are collected here from patent publication US7022856B2, “Carboline derivatives” (LIlly Icos LLC., priority 2001, dated 2006).

Tested on in the first data set: not given
Assay: not given
Conditions: not given
For `O=C(c1ccc2ccccc2c1)N1CCc2c([nH]c3ccccc23)C1c1ccc2c(c1)OCO2` (stereo not drawn) [Example 1, 1-(2H-Benzo[d]1,3-dioxolan-5-yl)(1,2,3,4-tetrahydro-β-carbolin-2-yl)-2-naphthyl ketone], the melting point fell in the range of 248 to 249 °C.
The compound `Cc1c(S(=O)(=O)N2CCc3c([nH]c4ccccc34)[C@H]2c2ccc3c(c2)OCO3)sc2ccc(Cl)cc12` [Example 45] registered a melting point of 139 to 143 °C.
With `O=C(c1ccc2ccccc2c1)N1CCc2c([nH]c3ccccc23)[C@H]1c1ccc2c(c1)OCO2` [Example 2, 1-(2H-benzo[d]1,3-dioxolan-5-yl)(1R)(1,2,3,4-tetrahydro-β-carbolin-2-yl)2-naphthyl ketone], the melting point was 285 °C.

In the next data set the target is T1, human recombinant PDE5 (Homo sapiens, UniProt O76074).
T1 construct: host or cells: Saccharomyces cerevisiae strain BJ2-54 (ATCC 74465)
Description: cGMP-PDE inhibition, one-step assay with human recombinant PDE5. Type of data set: biochemical. As to conditions: 0.15 μM 8-[H3]-cGMP, 30 min. As for the experimental part: The compounds of structural formula (I) were tested for an ability to inhibit PDE5. The ability of a compound to inhibit PDE5 activity is related to the IC50 value for the compound, i.e., the concentration of inhibitor required for 50% inhibition of enzyme activity. The IC50 value for compounds pounds of structural formula (I) were determined using recombinant human PDE5.
Recombinant production of human PDE1B, PDE2, PDE4A, PDE4B, PDE4C, PDE4D, PDE5, and PDE7 was carried out similarly to that described in Example 7 of U.S. Pat. No. 5,702,936, incorporated herein by reference, except that the yeast transformation vector employed, which is derived from the basic ADH2 plasmid described in Price et al., Methods in Enzymology, 185, pp. 308–318 (1990), incorporated yeast ADH2 promoter and terminator sequences and the Saccharomyces cerevisiae host was the protease-deficient strain BJ2-54 deposited on Aug. 31, 1998 with the American Type Culture Collection, Manassas, Va., under accession number ATCC 74465. Transformed host cells were grown in 2×SC-leu medium, pH 6.2, with trace metals, and vitamins. After 24 hours, YEP medium-containing glycerol was added to a final concentration of 2×YET/3% glycerol. Approxiately 24 hr later, cells were harvested, washed, and stored at −70° C. […]
Cell pellets (29 g) were thawed on ice with an equal volume of Lysis Buffer (25 mM Tris HCl, pH 8, 5 mM MgCl2, 0.25 mM DTT, 1 mM benzamidine, and 10 μM ZnSO4). Cells were lysed in a Microfluidizer® (Microfluidics Corp.) using nitrogen at 20,000 psi. The lysate was centrifuged and filtered through 0.45 μm disposable filters. The filtrate was applied to a 150 mL column of Q SEPHAROSE® Fast-Flow (Pharmacia). The column was washed with 1.5 volumes of Buffer A (20 mM Bis-Tris Propane, pH 6.8, 1 mM MgCl2, 0.25 mM DTT, 10 μM ZnSO4) and eluted with a step gradient of 125 mM NaCl in Buffer A followed by a linear gradient of 125–1000 mM NaCl in Buffer A. Active fractions from the linear gradient were applied to a 180 mL hydroxyapatite column in Buffer B (20 mM Bis-Tris Propane (pH 6.8), 1 mM MgCl2, 0.25 mM DTT, 10 μM ZnSO4, and 250 mM KCl). After loading, the column was washed with 2 volumes of Buffer B and eluted with a linear gradient of 0–125 mM potassium phosphate in Buffer B. Active fractions were pooled, precipitated with 60% ammonium sulfate, and resuspended in Buffer C (20 mM Bis-Tris Propane, pH 6.8, 125 mM NaCl, 0.5 mM DTT, and 10 μM ZnSO4). The pool was applied to a 140 mL column of SEPHACRYL® S-300 HR and eluted with Buffer C. Active fractions were diluted to 50% glycerol and stored at −20° C.
(§1) cGMP-PDE activity of compounds of the present invention was measured using a one-step assay adapted from Wells et al., Biochim. Biophys. Acta, 384, 430 (1975). The reaction medium contained 50 mM Tris-HCl, pH 7.5, 5 mM magnesium acetate. 250 μg/ml 5′-Nucleotidase, 1 mM EGTA, and 0.15 μM 8-[H^3]-cGMP. Unless otherwise indicated, the enzyme used was a human recombinant PDE5 (ICOS Corp., Bothell, Wash.).
(§2) Compounds of the invention were dissolved in DMSO finally present at 2% in the assay.
Consider `O=C(c1ccc2ccccc2c1)N1CCc2c([nH]c3ccccc23)C1c1ccc2c(c1)OCO2` (stereo not drawn) [Example 1, 1-(2H-Benzo[d]1,3-dioxolan-5-yl)(1,2,3,4-tetrahydro-β-carbolin-2-yl)-2-naphthyl ketone], for which the IC50 is 0.566 µM.
`Cc1c(S(=O)(=O)N2CCc3c([nH]c4ccccc34)[C@H]2c2ccc3c(c2)OCO3)sc2ccc(Cl)cc12` [Example 45]: the IC50 was 0.22 µM.
As to `O=C(c1ccc2ccccc2c1)N1CCc2c([nH]c3ccccc23)[C@H]1c1ccc2c(c1)OCO2` [Example 2, 1-(2H-benzo[d]1,3-dioxolan-5-yl)(1R)(1,2,3,4-tetrahydro-β-carbolin-2-yl)2-naphthyl ketone], the IC50 was 0.71 µM.
As to `CC(=O)c1ccc(C(=O)N2CCc3c([nH]c4ccccc34)C2c2ccc3c(c2)OCO3)s1` (centres unmarked) [Example 36], the IC50 was 0.11 µM.
Still for that read-out and setting: to `c1ccc2c3c([nH]c2c1)C(c1ccc2c(c1)CCO2)N(c1cc(-n2ccnc2)ncn1)CC3` (centres unmarked) [Example 65] belongs 0.02 µM.
As to `c1ccc(-c2nccc(N3CCc4c([nH]c5ccccc45)C3c3ccc4c(c3)OCO4)n2)cc1` (centres unmarked) [Example 55], the IC50 turned out to be 0.02 µM.
Turning to `c1csc(-c2nccc(N3CCc4c([nH]c5ccccc45)C3c3ccc4c(c3)CCO4)n2)c1` (centres unmarked) [Example 62], the concentration for half-maximal inhibition (IC50) came out at 0.05 µM.
Same read-out and setting: to `c1ccc2c3c([nH]c2c1)C(c1ccc2c(c1)CCO2)N(c1ccnc(N2CCCCC2)n1)CC3` (centres unmarked) [Example 64] belongs 0.76 µM; to `CC(=O)Oc1ccc(-c2cc(N3CCc4c([nH]c5ccccc45)C3c3ccc4c(c3)CCO4)ncn2)cc1` (centres unmarked) [Example 81], 0.003 µM.
For `c1ccc2c3c([nH]c2c1)C(c1ccc2c(c1)CCO2)N(c1nccc(-n2ccnc2)n1)CC3` (centres unmarked) [Example 60], the IC50 came out at 0.07 µM.
`COc1cc2cnc(N3CCc4c([nH]c5ccccc45)C3c3ccc4c(c3)OCO4)nc2cc1OC` (stereo not drawn) [Example 47b, 1-Benzo[1,3]dioxol-5-yl-2-(6,7-dimethoxyquinazolin-2-yl)-2,3,4,9-tetrahydro-1H-β-carboline]: the IC50 was determined as 0.005 µM.
Take `c1ccc2c3c([nH]c2c1)C(c1ccc2c(c1)OCO2)N(c1nccc(N2CCOCC2)n1)CC3` (centres unmarked) [Example 87]: the IC50 turned out to be 1.01 µM.
On to `O=C(c1ccc(-c2ccccc2)s1)N1CCc2c([nH]c3ccccc23)C1c1ccc2c(c1)OCO2` (centres unmarked) [Example 19], for which the IC50 amounted to 0.25 µM.

In another data set the target is T2, PDE5 (bovine aorta) (Bos taurus, UniProt Q28156).
T2 construct: from tissue; host or cells: bovine aorta
Description: cGMP-PDE inhibition, one-step assay, enzyme from bovine aorta. Format: biochemical. Conditions: versus bovine aorta (footnote 1). As for the experimental part:
as §1, §2
`O=C(c1cc2ccccc2s1)N1CCc2c([nH]c3ccccc23)C1c1ccc(C(F)(F)F)cc1` (centres unmarked) [Example 14] displayed an IC50 of 0.2 µM.
Take `CC(=O)Nc1ccc(C(=O)N2CCc3c([nH]c4ccccc34)C2c2ccc3c(c2)OCO3)cc1` (stereo not drawn) [Example 4, N-{4[1-(1-Benzo[1,3]dioxol-5-yl-1,3,4,9-tetrahydro-β-carboline-2-yl)-methanoyl]phenyl}acetamide]: the midpoint of inhibition, the IC50, lay at 0.05 µM.
`O=C(c1ccc(-c2ccccn2)s1)N1CCc2c([nH]c3ccccc23)C1c1ccc2c(c1)OCO2` (centres unmarked) [Example 17] returned an IC50 of 0.25 µM.
Consider `O=C(c1ccccc1)N1CCc2c([nH]c3ccccc23)C1c1ccc2c(c1)OCO2` (centres unmarked) [Example 3], for which inhibition was half-maximal at 0.44 µM (IC50).
With `O=C(c1ccc2nc[nH]c2c1)N1CCc2c([nH]c3ccccc23)C1c1ccc2c(c1)OCO2` (stereo not drawn) [Example 12, 1-(1-Benzo[1,3]dioxol-5-yl-1,3,4,9-tetrahydro-β-carbolin-2-yl)-1-(3H-benzoimidazol-5-yl)methanone], inhibition was half-maximal at 0.18 µM (IC50).
On the same count and under the same terms, to `O=C(c1ccc(-c2ccccn2)s1)N1CCc2c([nH]c3ccccc23)C1c1ccccc1` (centres unmarked) [Example 15] belongs 0.001 µM; to `CC(=O)Nc1ccc(C2c3[nH]c4ccccc4c3CCN2C(=O)c2cc3ccccc3s2)cc1` (centres unmarked) [Example 16], 0.07 µM.

Usually melting point stands for the temperature of the solid-liquid transition. The IC50 is the concentration at which inhibition is half-maximal.
